Measured values as given in US20260256799A1, “INHIBITORS FOR TREATING SOLID TUMOURS” (UNIVERSITY OF SOUTHAMPTON, priority 2023, published 2026).

What was measured:
[1] = monotherapy, dose escalation phase 1; cited from earlier work
HFFF2 fibroblasts = assay: TGF-β1-induced myofibroblast differentiation of fibroblasts (Western blotting, immunofluorescence, Q-RT-PCR, collagen gel contraction); type: cell-based, human
Description: Human NSCLC cell line H441, HNSCC SCC25, murine cancer cell line TC-1 (lung), MC38 (colon) and human fetal foreskin fibroblasts HFFF2 were purchased from European Collection of Cell Cultures (Public Health England) or ATCC; HNSCC 5PT [32] were provided by l. Mackenzie (Queen Mary University of London, UK). HEK-293T cells and IMR90 lung fibroblasts were provided by Jesus Gil (Imperial College, London, UK). SCC25 were grown in Ham's F12:DMEM (1:1 ratio) medium with 10% FBS (Calbiochem) and 292 μg/ml L-Glutamine. 5PT were cultured in keratinocyte growth medium. HEK-293T, H441, MC38, HFFF2, IMR90 and primary fibroblasts were grown in DMEM supplemented with 10% FBS and 292 μg/ml L-Glutamine. Primary fibroblasts were isolated as previously used at early passage (p1-10). C57BL/6 murine normal lung and colon fibroblasts (MLF and MCF respectively) were grown at 3% oxygen. TC-1 were cultured in RPMI supplemented with 10% FBS and 292 μg/ml L-Glutamine. All cell cultures were routinely tested for mycoplasma contamination. All cells were cultured using standard cell culture plates/flasks (Corning). HFFF2 or IMR90 cells were transfected with 25 μM On-Target pool siRNA (Thermo Scientific/Dharmacon) using Oligofectamine reagent (Life Technologies) as described. Stable knockdown was performed using retro/lentiviral mediated transduction of shRNA plasmids, as previously described followed by cell selection using 1 μg/ml puromycin for 5-7 days. NOX4-inducible HEK-293 cells (kindly provided by Vincent Jaquet) were treated with 1 μg/ml doxycycline. Wild type and mutant (C2991L) ATM over-expression was carried out transfecting HFFF2 with Viafect (Promega) according to manufacturer's instructions and selected for 10 days with 4 mg/ml G418. p-Retrosuper-shATM (ATM #1:912) and pCDNA3.1-Flag-mut-ATM (C2991L; pTP1625 clone) were kindly provided by Yosef Shiloh and Tanya Paull respectively. pLKO.1 murine shATM (TRCN0000012643) and pCDNA3.1-Flag-wt-ATM (31985) were purchased from Sigma and Addgene respectively. 2 ng/ml TGF-3 (TGF-β1; R&D Systems; for 3 days) was used to induce myofibroblast differentiation. 10 ng/ml IL-1pR (R&D Systems) for 72 hours was used to induce iCAF differentiation. […] All the inhibitors were resuspended in DMSO. To trigger DDR activation and/or cell stress HFFF2 were either irradiated with 2-100Gy using 350Kv X-Ray Irradiation System (Faxitron), or treated with 100 ng/ml Neocarzinostatin for 2 hours (NCS; Sigma), with 2-10 mM H2O2(Fisher Scientific) or with 5 μg/ml Cisplatin (Sandoz) for 30 minutes.
5×10^3 HFFF2 were plated on permanox chamber slides (Thermo Scientific) and treated as described in the figure legends. Immunostaining was performed as previously. DAPI was used as nuclear counterstain and coverslips were mounted using fluorescent mounting solution (Dako). Images were taken using an Olympus IX81 fluorescence microscope and Xcellence program. DNA Damage foci were quantified from at least 8 non-overlapping FoV with ~300 cells in total per condition. Kruskall-Wallis statistical test was used to indicate the presence of a different distribution per time points in each group of foci. For collagen 1A1 deposition, 5×10^3 HFFF2 or MLF were seeded into chamber slides and treated with TGF-β1±inhibitors for a week (treated day 1 & day 4). Decellularisation was performed using 0.25M NH4OH in 50 mM Tris at 37° C. for 30 minutes and slides fixed with ice-cold 100% methanol at −20° C. followed by a blocking step. The remainderwas performed as previously described. SMA and Collagen 1A1 quantification was performed using Fiji. High resolution imaging of mouse tumours was carried out using an Axioscan.Z1 scanner (Zeiss).

[2] = CCT241533 1.5 μM + TGF-β1 72 hours, HFFF2
[3] = CCT241533 1.5 μM + TGF-β1, HFFF2

Row | Structure (SMILES) | adverse effects [1] | TGF-β1-dependent FnEDA expression (HFFF2 fibroblasts; [2]) | TGF-β1-dependent SMA expression (HFFF2 fibroblasts; [2]) | SMA-positive stress fiber formation (HFFF2 fibroblasts; [3]) | collagen deposition (HFFF2 fibroblasts; [3])
1 | CC(C)n1c(=O)n(C)c2cnc3cc(F)c(-c4ccc(OCCCN5CCCCC5)nc4)cc3c21 [AZD1390] | not yet reporting to be associated with adverse effects | – | – | – | –
2 | COc1cc2nc(-c3cc(F)ccc3O)nc(N[C@@H]3CNC[C@H]3C(C)(C)O)c2cc1OC [CCT241533] | – | suppresses | suppresses | suppresses | suppresses
